Target: Aβ1-40 peptide monomer (Homo sapiens, UniProt P05067)
Type: biochemical
Details: 50 μM test compound, 20 μM Aβ1-40 monomer, 4 μM pre-formed sonicated Aβ1-40 fibrils, pH 7.4, two hours at 37° C., HPLC
Procedure: The activity of the disclosed compounds is assessed according to the procedure reported below. An Aβ1-40 peptide monomer stock solution is prepared by dissolving the peptide in dimethylsulfoxide at a concentration of 33.33 mg/mL. The stock solution is further diluted 1 to 11.5 with dimethylsulfoxide. This solution is then diluted with 10 mM phosphate buffer pH 7.4 containing 150 mM sodium chloride to prepare the test solution. To an eppendorf tube containing 47 μL of Aβ1-40 peptide monomer solution are added 3 μL of a 830 μM water solution of the test compound containing 66.4 μM, based on the Aβ1 -40 monomer content, of pre-formed sonicated Aβ1-40 fibrils: the resulting solution is 20 μM in Aβ1-40 monomer, 50 μM in the test compound and contains 4 μM, based on the Aβ1-40 monomer content, of pre-formed sonicated Aβ1-40 fibrils. The aggregation is allowed to proceed for two hours at 37° C. The suspension is then centrifuged at 15000 rpm for 15 minutes at +4° C., the supernatant is collected and the Aβ1 -40 monomer is quantitated by HPLC. The activity is expressed as the percent of inhibition of the aggregation of a 20 μM Aβ1-40 monomer solution stimulated by 4 μM, based on the Aμ1-40 monomer content, pre-formed sonicated Aμ1-40 fibrils.

Chain of Aβ1-40 peptide monomer (P05067 672-711 limits assumed): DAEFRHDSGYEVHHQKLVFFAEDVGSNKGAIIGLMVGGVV

Point of comparison: `CON=C1CC2c3c(O)c4c(c(O)c3CC1(C)N2Cc1ccc(OC)c(OC)c1)C(=O)c1cccc(OC)c1C4=O` (stereo not drawn) [Compound 1e, 8-N-(3.4-dimethoxybenzyl)anthrazalone O-methyloxime], “% inhibition (of the aggregation of Aβ1-40 monomer)” value 26.2%. Against it:
- COc1ccc(CN2C3CC(=NO)C2(C)Cc2c(O)c4c(c(O)c23)C(=O)c2c(OC)cccc2C4=O)cc1OC (stereo not drawn) [Compound 1a, 8-N-(3,4-dimethoxybenzyl) anthrazalone oxime] — lower, 22.9%
- CCON=C1CC2NC1(C)Cc1c(O)c3c(c(O)c12)C(=O)c1c(OC)cccc1C3=O (single isomer, unassigned) [lac-I, Anthrazalone O-ethyloxime] — higher, 54.2%
- COc1cccc2c1C(=O)c1c(O)c3c(c(O)c1C2=O)CC1(C)C(=NOCc2ccccc2)CC3N1Cc1ccncc1 (stereo not drawn) [Compound 1q, 8-N-(4-pyridylmethyl)anthrazalone O-benzyloxime] — lower, 24.2%
- CON=C1CC2c3c(O)c4c(c(O)c3CC1(C)N2Cc1ccncc1)C(=O)c1cccc(OC)c1C4=O (stereo not drawn) [Compound 1p, 8-N-(4-pyridylmethyl)anthrazalone O-methyloxime] — higher, 31.7%
- C=CCN1C2CC(=NOC)C1(C)Cc1c(O)c3c(c(O)c12)C(=O)c1c(OC)cccc1C3=O (stereo not drawn) [Compound 1c, 8-N-allylanthrazalone O-methyl-oxime] — higher, 36.0%
